Experimental findings from ChEMBL document CHEMBL5230122, “Natural products and other inhibitors of F1FO ATP synthase” (Eur J Med Chem, 2020) are described below.

Assay [1] can be described thus: Inhibition of bovine heart mitochondrial F0F1-ATP synthase for 1 hr by microplate reader analysis. The class given is mitochondria, Bos taurus, Mitochondria.
The next assay concerns HepG2. Briefly: Cytotoxicity against human HepG2 cells assessed as reduction in glucose induced mitochondrial toxicity by measuring ATP depletion incubated for 24 hrs by CellTiter-Glo luminescent cell viability assay. The class given is functional, cell-based. To be noted: HepG2, 24 h. (In general: In ATP-based viability assays light output follows the ATP content of the culture.)

Assay [2] in a line: Neuroprotective activity against amyloid beta induced cell death in rat Primary hippocampal neuron cells assessed as increase in cell viability incubated for 2 days by lactate dehydrogenase release assay. Type of assay: functional, cell-based. To be noted: Hippocampal neurone, 48 h.
The test system of the next assay is Cortical neurone. Kind of assay: Neuroprotective activity against rat Primary cortical neuron cells assessed as rescue of cell death incubated for 2 days by fluorescent live-dead assay. Type of assay: functional, cell-based. To be noted: 48 h.
Assay [3] in a line: Binding affinity to mitochondrial ATP5A in mouse HT-22 cells measured after 15 mins by LC/MS/MS based pull-down assay. The class given is cell-based.
The test system of the next assay is CAKI-1. Kind of assay: Antiproliferative activity against human CAKI-1 cells assessed as reduction in cell proliferation incubated for 96 hrs by Cell TiterGlo assay. The class given is functional, cell-based. To be noted: CAKI-1, 96 h.
A short description of assay [4]: Inhibition of bovine heart mitochondria ATP synthase in presence of PEP, PK, LDH and NADH for 1 hrs by MitoTox microplate assay. Also on record: species or system Bos taurus.

As to `Cc1oncc1C(=O)Nc1ccc(C(F)(F)F)cc1` [LEFLUNOMIDE], the IC50 came out at 35000 nM in assay [1] and 110000 nM with HepG2.
Regarding `COc1cccc(/C=N/N(C(=O)C(F)(F)F)c2ccc(C)cc2C)c1` [J147], the results for the EC50 (in assay [2]; with Cortical neurone; in assay [3]) were 200 nM, 25 nM and 20 nM, respectively.
For `Nc1ncnc2c1nc(Cl)n2[C@@H]1O[C@H](CO)[C@@H](O)[C@H]1O` [8-CHLOROADENOSINE], the IC50 with CAKI-1 was found to be 2000 nM.
`CNC(=O)c1cc(Oc2ccc(NC(=O)Nc3ccc(Cl)c(C(F)(F)F)c3)cc2)ccn1` [SORAFENIB]: the half-maximal inhibitory concentration (IC50) in assay [4] turned out to be 2500 nM.

As a reminder, the IC50 is the concentration at which inhibition is half-maximal. A word on the EC50: it is the concentration at which the effect is half-maximal.
